What is called Ki is the dissociation constant of the complex between target and ligand, obtained from inhibition or displacement. A low value points to tighter binding.

Our source for the Ki values is BindingDB's records for patent US20230271964 (AstraZeneca, 2023).

For experiment [1], the target named is T1, Adenosine receptor A1 (Homo sapiens, UniProt P30542).
T1 sequence (P30542 whole entry): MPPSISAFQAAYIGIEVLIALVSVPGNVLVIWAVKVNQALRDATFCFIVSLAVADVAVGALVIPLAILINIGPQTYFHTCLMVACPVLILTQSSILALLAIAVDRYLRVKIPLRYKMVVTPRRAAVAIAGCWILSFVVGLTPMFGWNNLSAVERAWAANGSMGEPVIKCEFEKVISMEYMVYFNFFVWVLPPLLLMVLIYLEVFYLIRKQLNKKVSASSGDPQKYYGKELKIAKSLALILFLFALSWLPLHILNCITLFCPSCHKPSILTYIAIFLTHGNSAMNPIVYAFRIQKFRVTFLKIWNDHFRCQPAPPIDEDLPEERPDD
Nature of the experiment: Adenosine Receptor Binding Assay. The protocol: (§1) Inhibition binding assays were performed using 0.2 µg of membranes prepared from HEK293 cells infected with BacMam human adenosine A2A receptor or 1.4 µg of membranes prepared from HEK293 cells infected with BacMam human adenosine A1 receptor. Membranes were incubated in 50 mM Tris-HCl (HEK293-hA2A; pH 7.4) or 50 mM Tris-HCl, 100 mM NaCl, 10 mM MgCl2 (CHO-hA1; pH 7.4) in the presence of varying concentrations of test compound and 1 nM [3H]ZM241385 (HEK293-hA2A) or [3H]DPCPX (CHO-hA1) at 25° C. for 1 h. The assay was then terminated by rapid filtration onto GF/B grade Unifilter plates using a TomTec cell harvester, followed by 5 × 0.5 ml washes with ddH2O. […] Bound radioactivity was determined by liquid scintillation counting and inhibition curves were analysed using a four-parameter logistic equation. IC50 values were converted to Ki values with the Cheng-Prusoff equation using a KD value derived from saturation binding studies.

The target of experiment [2] is Adenosine receptor A2a (Homo sapiens, UniProt P29274). Nature of the experiment: Adenosine Receptor Binding Assay. The protocol: as §1
Sequence of Adenosine receptor A2a (P29274 whole entry): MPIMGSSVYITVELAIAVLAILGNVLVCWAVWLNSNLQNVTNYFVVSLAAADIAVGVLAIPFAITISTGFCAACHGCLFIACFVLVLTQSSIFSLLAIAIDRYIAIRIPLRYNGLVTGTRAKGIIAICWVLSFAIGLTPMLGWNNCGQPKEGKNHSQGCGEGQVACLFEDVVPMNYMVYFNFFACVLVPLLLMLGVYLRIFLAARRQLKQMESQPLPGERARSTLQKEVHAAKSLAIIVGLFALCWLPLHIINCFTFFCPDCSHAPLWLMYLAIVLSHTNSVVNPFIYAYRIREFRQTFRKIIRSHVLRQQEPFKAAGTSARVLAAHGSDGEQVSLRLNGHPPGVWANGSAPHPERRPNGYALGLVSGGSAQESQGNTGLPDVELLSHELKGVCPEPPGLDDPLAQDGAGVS

Consider `Cc1cc(-c2c(-c3ccccc3)nc(N)n3c(=O)n(Cc4ncc[nH]4)nc23)cc(C)n1` [US20230271964, Example 1-24], for which the inhibition constant Ki came out at 25.1 nM in experiment [1] and 0.631 nM in experiment [2].
